# Laboratory results reported in PubChem BioAssay (NCI).
#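 Protocol summary: plate cells (96-well), add compound at 5 concentrations, incubate 48 h, interpolate endpoints linearly. At the GI50, growth is halved. The concentration for full growth arrest is given as TGI.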
# Legend:
# Assay in all cases: NCI-60 cell line screen, 48 h
# 786-0 renal = system: 786-0 renal
# A498 renal = system: A498 renal
# A549 NSCLC = system: A549 NSCLC
# ACHN renal = system: ACHN renal
# CAKI-1 renal = system: CAKI-1 renal
# CCRF-CEM leukemia = system: CCRF-CEM leukemia
# COLO 205 colon = system: COLO 205 colon
# DU-145 prostate = system: DU-145 prostate
# EKVX NSCLC = system: EKVX NSCLC
# HCC-2998 colon = system: HCC-2998 colon
# HCT-116 colon = system: HCT-116 colon
# HCT-15 colon = system: HCT-15 colon
# HL-60(TB) leukemia = system: HL-60(TB) leukemia
# HOP-62 NSCLC = system: HOP-62 NSCLC
# HOP-92 NSCLC = system: HOP-92 NSCLC
# HS 578T breast = system: HS 578T breast
# HT29 colon = system: HT29 colon
# IGROV1 ovarian = system: IGROV1 ovarian
# K-562 leukemia = system: K-562 leukemia
# KM12 colon = system: KM12 colon
# LOX IMVI melanoma = system: LOX IMVI melanoma
# M14 melanoma = system: M14 melanoma
# MCF7 breast = system: MCF7 breast
# MDA-MB-231 breast = system: MDA-MB-231 breast
# MDA-MB-435 = system: MDA-MB-435
# MOLT-4 leukemia = system: MOLT-4 leukemia
# NCI-H226 lung = system: NCI-H226 lung
# NCI-H23 lung = system: NCI-H23 lung
# NCI-H522 lung = system: NCI-H522 lung
# NCI/ADR-RES ovarian = system: NCI/ADR-RES ovarian
# OVCAR-3 ovarian = system: OVCAR-3 ovarian
# OVCAR-4 ovarian = system: OVCAR-4 ovarian
# OVCAR-5 ovarian = system: OVCAR-5 ovarian
# OVCAR-8 ovarian = system: OVCAR-8 ovarian
# PC-3 prostate = system: PC-3 prostate
# RPMI-8226 leukemia = system: RPMI-8226 leukemia
# RXF 393 renal = system: RXF 393 renal
# SF-268 CNS = system: SF-268 CNS
# SF-295 CNS = system: SF-295 CNS
# SF-539 CNS = system: SF-539 CNS
# SK-MEL-2 melanoma = system: SK-MEL-2 melanoma
# SK-MEL-28 melanoma = system: SK-MEL-28 melanoma
# SK-OV-3 ovarian = system: SK-OV-3 ovarian
# SN12C renal = system: SN12C renal
# SNB-19 CNS = system: SNB-19 CNS
# SNB-75 CNS = system: SNB-75 CNS
# SR leukemia = system: SR leukemia
# SW-620 colon = system: SW-620 colon
# T-47D breast = system: T-47D breast
# TK-10 renal = system: TK-10 renal
# U251 CNS = system: U251 CNS
# UACC-257 melanoma = system: UACC-257 melanoma
# UACC-62 melanoma = system: UACC-62 melanoma
# UO-31 renal = system: UO-31 renal
# MALME-3M melanoma = system: MALME-3M melanoma
# NCI-H460 lung = system: NCI-H460 lung
# BT-549 breast = system: BT-549 breast
smiles,measurement,setting,value
O=C1CC(c2cccc(Br)c2)n2cccc21 (stereo unspecified),TGI,786-0 renal,> 100 µM
same,TGI,A498 renal,> 100 µM
same,TGI,A549 NSCLC,> 100 µM
same,TGI,ACHN renal,> 100 µM
same,TGI,CAKI-1 renal,> 100 µM
same,TGI,CCRF-CEM leukemia,> 100 µM
same,TGI,COLO 205 colon,> 100 µM
same,TGI,DU-145 prostate,> 100 µM
same,TGI,EKVX NSCLC,> 100 µM
same,TGI,HCC-2998 colon,> 100 µM
same,TGI,HCT-116 colon,> 100 µM
same,TGI,HCT-15 colon,> 100 µM
same,TGI,HL-60(TB) leukemia,87.3 µM
same,TGI,HOP-62 NSCLC,> 100 µM
same,TGI,HOP-92 NSCLC,> 100 µM
same,TGI,HS 578T breast,> 100 µM
same,TGI,HT29 colon,> 100 µM
same,TGI,IGROV1 ovarian,> 100 µM
same,TGI,K-562 leukemia,> 100 µM
same,TGI,KM12 colon,> 100 µM
same,TGI,LOX IMVI melanoma,> 100 µM
same,TGI,M14 melanoma,> 100 µM
same,TGI,MCF7 breast,> 100 µM
same,TGI,MDA-MB-231 breast,> 100 µM
same,TGI,MDA-MB-435,> 100 µM
same,TGI,MOLT-4 leukemia,> 100 µM
same,TGI,NCI-H226 lung,> 100 µM
same,TGI,NCI-H23 lung,> 100 µM
same,TGI,NCI-H522 lung,> 100 µM
same,TGI,NCI/ADR-RES ovarian,> 100 µM
same,TGI,OVCAR-3 ovarian,> 100 µM
same,TGI,OVCAR-4 ovarian,> 100 µM
same,TGI,OVCAR-5 ovarian,> 100 µM
same,TGI,OVCAR-8 ovarian,> 100 µM
same,TGI,PC-3 prostate,> 100 µM
same,TGI,RPMI-8226 leukemia,> 100 µM
same,TGI,RXF 393 renal,> 100 µM
same,TGI,SF-268 CNS,> 100 µM
same,TGI,SF-295 CNS,> 100 µM
same,TGI,SF-539 CNS,> 100 µM
same,TGI,SK-MEL-2 melanoma,95.3 µM
same,TGI,SK-MEL-28 melanoma,> 100 µM
same,TGI,SK-OV-3 ovarian,> 100 µM
same,TGI,SN12C renal,> 100 µM
same,TGI,SNB-19 CNS,> 100 µM
same,TGI,SNB-75 CNS,> 100 µM
same,TGI,SR leukemia,> 100 µM
same,TGI,SW-620 colon,> 100 µM
same,TGI,T-47D breast,> 100 µM
same,TGI,TK-10 renal,> 100 µM
same,TGI,U251 CNS,> 100 µM
same,TGI,UACC-257 melanoma,> 100 µM
same,TGI,UACC-62 melanoma,> 100 µM
same,TGI,UO-31 renal,66.9 µM
CN(CCNCc1cn(C)c2c1ccc1ccccc12)CCNCc1cn(C)c2c1ccc1ccccc12,TGI,786-0 renal,1.83 µM
same,TGI,A498 renal,13.9 µM
same,TGI,A549 NSCLC,2.31 µM
same,TGI,ACHN renal,2.97 µM
same,TGI,CCRF-CEM leukemia,2.21 µM
same,TGI,COLO 205 colon,2.33 µM
same,TGI,DU-145 prostate,2.76 µM
same,TGI,HCT-116 colon,2.33 µM
same,TGI,HCT-15 colon,2.5 µM
same,TGI,HOP-92 NSCLC,3.38 µM
same,TGI,HT29 colon,2.77 µM
same,TGI,IGROV1 ovarian,3.24 µM
same,TGI,KM12 colon,2.32 µM
same,TGI,M14 melanoma,0.904 µM
same,TGI,MALME-3M melanoma,3.61 µM
same,TGI,MDA-MB-231 breast,2.99 µM
same,TGI,MDA-MB-435,2.86 µM
same,TGI,MOLT-4 leukemia,2.81 µM
same,TGI,NCI-H23 lung,2.67 µM
same,TGI,NCI-H460 lung,> 100 µM
same,TGI,NCI-H522 lung,2.86 µM
same,TGI,NCI/ADR-RES ovarian,2.54 µM
same,TGI,OVCAR-4 ovarian,2.64 µM
same,TGI,OVCAR-8 ovarian,3.34 µM
same,TGI,PC-3 prostate,2.57 µM
same,TGI,RPMI-8226 leukemia,> 100 µM
same,TGI,RXF 393 renal,1.71 µM
same,TGI,SF-539 CNS,3.16 µM
same,TGI,SK-MEL-28 melanoma,2.84 µM
same,TGI,SNB-19 CNS,2.3 µM
same,TGI,SR leukemia,2.88 µM
same,TGI,SW-620 colon,2.57 µM
same,TGI,U251 CNS,2.11 µM
same,TGI,UACC-257 melanoma,3.03 µM
Nc1nc(Cl)c(N=Nc2ccc(Cl)cc2)c(NCC2(CO)CCC2)n1,GI50,786-0 renal,10.2 µM
same,GI50,ACHN renal,41 µM
same,GI50,BT-549 breast,49.8 µM
same,GI50,CAKI-1 renal,2.27 µM
same,GI50,EKVX NSCLC,21.7 µM
same,GI50,HCT-116 colon,36.8 µM
same,GI50,HOP-62 NSCLC,42 µM
same,TGI,HOP-62 NSCLC,82.6 µM
same,GI50,HOP-92 NSCLC,14.9 µM
same,TGI,HOP-92 NSCLC,64.9 µM
same,GI50,HS 578T breast,32.9 µM
same,GI50,LOX IMVI melanoma,41 µM
same,GI50,M14 melanoma,98.9 µM
same,GI50,MCF7 breast,25.3 µM
same,GI50,MDA-MB-231 breast,8.74 µM
same,TGI,MDA-MB-231 breast,51.1 µM
same,GI50,NCI-H226 lung,77 µM
same,GI50,NCI-H23 lung,48 µM
same,GI50,NCI/ADR-RES ovarian,41.8 µM
same,GI50,OVCAR-8 ovarian,26.8 µM
same,TGI,OVCAR-8 ovarian,88.8 µM
same,GI50,RXF 393 renal,36.5 µM
same,TGI,RXF 393 renal,61.6 µM
same,GI50,SF-268 CNS,46.3 µM
same,GI50,SF-295 CNS,49.4 µM
same,GI50,SF-539 CNS,90.7 µM
same,GI50,SK-MEL-2 melanoma,89.3 µM
same,GI50,SK-OV-3 ovarian,12.6 µM
same,GI50,SNB-19 CNS,33.7 µM
same,GI50,SNB-75 CNS,7.05 µM
same,TGI,SNB-75 CNS,30.1 µM
same,GI50,T-47D breast,26.4 µM
same,GI50,U251 CNS,41.1 µM
COc1cc2cc(C(=O)N3CC(CCl)c4c3cc(N)c3ccccc43)[nH]c2c(OC)c1OC (stereo unspecified),TGI,786-0 renal,0.0102 µM
same,TGI,A498 renal,< 0.01 µM
same,TGI,A549 NSCLC,1.4 µM
same,TGI,ACHN renal,0.108 µM
same,TGI,CAKI-1 renal,< 0.01 µM
same,TGI,CCRF-CEM leukemia,< 0.01 µM
same,TGI,COLO 205 colon,< 0.01 µM
same,TGI,DU-145 prostate,0.0549 µM
same,TGI,EKVX NSCLC,< 0.01 µM
same,TGI,HCC-2998 colon,< 0.01 µM
same,TGI,HCT-116 colon,1.08 µM
same,TGI,HCT-15 colon,1.58 µM
same,TGI,HOP-62 NSCLC,< 0.0109 µM
same,TGI,HOP-92 NSCLC,0.275 µM
same,TGI,HT29 colon,1.41 µM
same,TGI,IGROV1 ovarian,0.0401 µM
same,TGI,K-562 leukemia,< 0.01 µM
same,TGI,KM12 colon,0.0207 µM
same,TGI,LOX IMVI melanoma,0.0103 µM
same,TGI,MALME-3M melanoma,< 0.01 µM
same,TGI,MDA-MB-231 breast,0.519 µM
same,TGI,MOLT-4 leukemia,< 0.01 µM
same,TGI,NCI-H226 lung,1.13 µM
same,TGI,NCI-H23 lung,< 0.01 µM
same,TGI,NCI-H522 lung,< 0.01 µM
same,TGI,NCI/ADR-RES ovarian,< 0.01 µM
same,TGI,OVCAR-3 ovarian,< 0.01 µM
same,TGI,OVCAR-4 ovarian,< 0.045 µM
same,TGI,OVCAR-8 ovarian,< 0.01 µM
same,TGI,PC-3 prostate,< 0.0114 µM
same,TGI,RPMI-8226 leukemia,< 0.0107 µM
same,TGI,RXF 393 renal,< 0.01 µM
same,TGI,SF-268 CNS,< 0.01 µM
same,TGI,SK-MEL-2 melanoma,< 0.01 µM
same,TGI,SK-OV-3 ovarian,0.248 µM
same,TGI,SN12C renal,< 0.01 µM
same,TGI,SNB-19 CNS,10.5 µM
same,TGI,SNB-75 CNS,< 0.01 µM
same,TGI,SR leukemia,< 0.01 µM
same,TGI,SW-620 colon,> 100 µM
same,TGI,T-47D breast,> 100 µM
same,TGI,TK-10 renal,2.32 µM
same,TGI,U251 CNS,0.0998 µM
same,TGI,UACC-62 melanoma,< 0.01 µM
same,TGI,UO-31 renal,< 0.01 µM
